The test system of assay [1] is Escherichia coli. Kind of assay: Direct exposure growth inhibition of mini cultures by turbidity (MIC). It is filed as cell-based. As to conditions: 5 hours at 37° C.
Procedure: Growth inhibition was monitored by measuring turbidity of mini cultures after 5 hours of aerobe incubation at 37° C. under agitation. Solutions were diluted to the half in cascade.
For assay [2], the system named is Streptococcus mutans. The assay can be described thus: Inhibition zone assay on BHI agar plate. It is filed as cell-based. As to conditions: 48 h at 37° C. anaerobe. As to the method: The antibacterial activity of ε-polylysine was semi-quantitatively assessed in a inhibition zone assay. 0.1 mL of a confluent Streptococcus mutans culture was spread over a Brain Heart Infusion (BHI) agar plate. Filter platelets (5 mm diameter) soaked with 0.01 mL substance were applied on plate. Plates were incubated 48 h at 37° C. under anaerobe conditions. The diameter of outer limit of the inhibition zones were measured, the diameter of the platelet deduced and the half result considered the radius of inhibition rings. Concentrations were tested in triplicate and their results averaged.

The subject of assay [3] is S. mutans. The assay can be described thus: Short exposure assay (bactericidal effect). It is filed as cell-based, Streptococcus mutans. As to conditions: 0.05%, 10 minutes exposure, 5000 Colony Forming Units. As to the method: The short-term antibacterial activity of Citrox was semi-quantitatively assessed in a short exposure assay. A S. mutans culture, diluted in order to contain 5000 Colony Forming Units, was incubated for 10 minutes in presence of the antibacterial substance and extemporarily plated onto a BHI agar plate. Plates were incubated at 37° C. under anaerobe conditions and colony counted. […] Citrox 0.5% reduced the count of CFU to the half (<3000 CFU).

Assay [4] relates to chloroquine-sensitive Plasmodium chabaudi. The assay can be described thus: Malaria infection in mice. It is filed as in vivo. As to conditions: 20 to 40 days post-treatment.
The subject of assay [5] is Escherichia coli. Kind of assay: Pretreatment of high binding plates, growth inhibition by turbidity. It is filed as cell-based. On the procedure: High Binding plates were pre-treated with 0.1 mL of pure Citrox/ε-Polylysine solutions incubated 60′ at room temperature. The concentrations of Citrox range from 0.06% to 4%. The ε-Polylysine concentrations range from 30 mg/L to 120 mg/L. The wells have been emptied and rinsed with 0.2 mL bi-distilled water. 0.2 mL of a diluted Escherichia coli culture (turbidity: 5 mOD at 600 nm) were given to the pre-treated wells and incubated for 3 hours at 37° C. Turbidity were measured at 600 nm and percentage of growth inhibition in comparison to untreated well calculated (FIG. 1).

The target in assay [6] is Glucose oxidase (Aspergillus niger, UniProt P13006). Kind of assay: Immobilisation of glucose oxidase onto silicate, residual activity in solution. As to conditions: 0.25 mg/mL, 2 mg/mL silicate, artificial saliva buffer, FIG. 3. On the procedure:
0.5 mg/mL glucose oxidase enzyme was incubated for 15 minutes at room temperature in an artificial saliva buffer composition including:
with 2 mg/mL silicate and 0.25 mg/mL of an amino acid based compound, bovine serum albumin (BSA), lysine or ε-polylysine. The mixture was centrifuged in order to pellet the silicate and the supernatant tested for its glucose oxidase activity in presence of glucose, lactoperoxidase and a chromogen substrate (ABTS). The resulting activities were compared with the enzyme incubated with silicate in absence of an amino acid compound (FIG. 3).

Chain of Glucose oxidase (P13006 17-605): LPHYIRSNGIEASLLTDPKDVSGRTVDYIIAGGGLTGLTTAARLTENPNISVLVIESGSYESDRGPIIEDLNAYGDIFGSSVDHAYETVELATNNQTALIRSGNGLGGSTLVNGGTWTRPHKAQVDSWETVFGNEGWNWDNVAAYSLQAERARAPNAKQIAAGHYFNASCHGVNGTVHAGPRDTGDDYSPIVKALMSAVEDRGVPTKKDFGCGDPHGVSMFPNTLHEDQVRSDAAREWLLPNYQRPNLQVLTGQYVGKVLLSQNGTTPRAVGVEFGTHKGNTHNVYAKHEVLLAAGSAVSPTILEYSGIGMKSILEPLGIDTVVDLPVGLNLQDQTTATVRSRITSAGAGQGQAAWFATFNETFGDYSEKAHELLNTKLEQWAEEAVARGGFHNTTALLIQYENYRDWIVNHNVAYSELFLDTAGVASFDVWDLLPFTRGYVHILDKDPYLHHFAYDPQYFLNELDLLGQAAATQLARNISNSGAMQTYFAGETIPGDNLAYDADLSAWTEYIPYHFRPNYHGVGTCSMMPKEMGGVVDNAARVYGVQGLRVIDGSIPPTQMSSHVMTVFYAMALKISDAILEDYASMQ

In the case of `CCO` [Ethanol, reference compound], the “Minimal inhibitory concentration (MIC)” value in assay [1] (less than 2% (6% in case of ethanol) of growth, extrapolated from FIG. 2, 1% corresponds to 10 g/L) is listed as 12.5%. Further, the “Radius of inhibition rings” value in assay [2] (concentration not given) is recorded as 5 mm.
Regarding `OO` [Water peroxide, reference compound], the “Radius of inhibition rings” value in assay [2] (0.1%) came to 1.5 mm; in assay [2] (1%), 5 mm. Also, the colony formation entry in assay [3] was “complete absence of colony formation”.
For the molecule `CCN(CC)CCCC(C)Nc1ccnc2cc(Cl)ccc12` (stereo not shown) [chloroquine], in assay [4], the infection level result is listed as “approx. zero infection”.
Regarding ε-Polylysine, the “Minimal inhibitory concentration (MIC)” value in assay [1] (less than 2% of growth vs untreated control, extrapolated from FIG. 2) is 4 mg/L. In addition, in assay [5] (plate pretreatment together with Citrox), the “highest ε-polylysine concentration that does not affect significantly the antibacterial effect of Citrox pretreatment” value stood at 30 mg/L. Further, in assay [5] (ε-polylysine alone, titers largely above the MIC of direct exposure), the “inhibitory effect of pretreatment of a high binding plate” value is “does not yield any inhibitory effect”. For the same molecule, the “Radius of inhibition rings” value in assay [2] (10 mg/L) came to 0.5 mm; in assay [2] (100 mg/L), 2.5 mm; in assay [2] (1000 mg/L), 6.5 mm. Besides, the “immobilization of Glucose oxidase onto silicate” value in assay [6] is “promotes immobilization of Glucose oxidase onto silicate”.
